Experimental data taken from patent US6093836A, “1,3-diphenylpropane derivatives having inhibitory activity against tyrosinase and process for preparation thereof” (priority 1997, dated 2000).
≈ marks a conversion by molar mass, not a printed value. Read-outs that look alike come from different tables or passages of the source.

Tests used:
[1] = test system: B-16 mouse melanoma cells; assay: Inhibitory effect against melanin biosynthesis in B-16 mouse melanoma cell; assay type: cell-based; conditions: 72 h, read-out: IC50 (inhibition of melanin biosynthesis)
Description: Inhibitory Effect Against Melanin Biosynthesis in B-16 Mouse Melanoma Cell
B-16 mouse melanoma cells were cultured to a density of 10^6 cells/dish in culture media compounds in various concentrations were respectively added thereto and then cultured for 3 days. The cells were separated from the culture dish by the treatment with trypsin and then centrifuged to extract melanin(wherein a pellet was extracted using 2N perchloric acid). 1 ml of 1N aqueous sodium hydroxide solution was added to the melanin extracted and the resulting mixture was heated to dissolve melanrin. The absorbance at 400 nm was measured by a spectrophotometer and the amount of the melanin produced was represented by the absorbance per unit cell numbers(10^6 cell).

[2] = molecular target: tyrosinase; assay: Inhibitory activity against tyrosinase (mushroom enzyme, L-tyrosine substrate, absorbance at 475 nm); assay type: biochemical, mushrooms; conditions: pH 6.8, 37° C., 10 minutes
Description: That is, a sample is introduced into a microplate, to which are added a phosphate buffer solution(pH 6.8) and a L-tyrosine solution.
Inhibitory Activity Against Tyrosinase
Enzyme tyrosinase extracted from mushrooms(manufactured by Sigma) was used in the present experiment. First, a substrate L-tyrosine was dissolved in phosphate buffer solution(0.05M, pH 6.8) to a concentration of 1.5 mM and then 0.01 ml of this solution was introduced to a 0.3 ml cuvette in a spectrophotometry. Dopa as a cofacter was prepared as a solution in a concentration of 0.06 mM and 0.01 ml of this dopa solution was added to the substrate solution. To the resulting mixture were added the inhibitor of formula (I) and phosphate buffer solution to a total volume of 0.31 ml. The reaction was started by adding 0.1 ml of an enzyme solution in which tyrosinase was dissolved in phosphate buffer solution in a concentration of 60 U/ml. 0.1 ml of phosphate buffer solution instead of the enzyme solution was added to the blank sample. The reaction was carried out for 10 minutes at 37° C. and then absorbance at 475 nm was measured using Spectrophotometer (Beckman DU-7500).
[formula] in the above formula A represents absorbance at 475 nm when the inhibitor is added, and
B represents absorbance at 475 nm when the inhibitor is not added.

[3] = literature, J. Soc. Cosmet. Chem., 42, 361, 1991; cited from earlier work
[4] = background; cited from earlier work
[5] = B-16 mouse melanoma cells, 3 days, absorbance at 400 nm

SMILES | IC50 [1, 5] | IC50 (inhibitory activity against tyrosinase) [2] | side effects [3] | whitening effect [4] | IC50 ([1]; Mus musculus)
Cc1c(C)c2c(c(CCCc3ccc(O)cc3O)c1O)CCC(C)(C)O2 [Compound 9, 4-[3-(6-hydroxy-2,2,7,8-tetramethyl-chroman-5-yl)-propyl]-benzene-1,3-diol] | 3 µg/mL (≈ 8.42 µM) | 0.3 µg/mL (≈ 0.842 µM) | – | – | –
COc1c(C)c(C)c(O)c(C(O)CCc2ccc(O)cc2O)c1C (centres unmarked) [Compound 5, 4-[3-hydroxy-3-(2-hydroxy-5-methoxy-3,4,6-trimethyl-phenyl)-propyl]-benzene-1,3-diol] | 5 µg/mL (≈ 15 µM) | 0.1 µg/mL (≈ 0.301 µM) | – | – | –
Cc1c(C)c(O)c(CCCc2ccc(O)cc2O)c(C)c1O [Compound 2, 4-13-(2,5-dihydroxy-3,4,6-trimethyl-phenyl)-propyll-benzene-1,3-diol] | 5 µg/mL (≈ 16.5 µM) | 1 µg/mL (≈ 3.31 µM) | – | – | –
Cc1c(C)c2c(c(C(O)CCc3ccc(O)cc3O)c1O)CCC(C)(C)O2 (centres unmarked) [Compound 8, 4-[3-hydroxy-3-(6-hydroxy-2,2,7,8-tetramethyl-chroman-5-yl)-propyl]-benzene-1,3-diol] | 2 µg/mL (≈ 5.37 µM) | 0.3 µg/mL (≈ 0.805 µM) | – | – | –
CCOc1c(C)c(C)c(O)c(C(O)CCc2ccc(O)cc2O)c1C (centres unmarked) [Compound 7] | 20 µg/mL (≈ 57.7 µM) | 1.0 µg/mL (≈ 2.89 µM) | – | – | –
COc1c(C)c(C)c(O)c(C)c1CCCc1ccc(O)cc1O [Compound 4] | 45 µg/mL (≈ 142 µM) | 20 µg/mL (≈ 63.2 µM) | – | – | –
Oc1ccc(O)cc1 [Hydroquinone, reference compound] | – | 0.5 µg/mL (≈ 4.54 µM) | degeneration or lethal mutation of melanin, damage of the cellular function | – | –
Cc1c(C)c(O)c(C(O)CCc2ccc(O)cc2O)c(C)c1O (centres unmarked) [Compound 1, 4-[3-hydroxy-3-(2,5-dihydroxy-3,4,6-trimethyl-phenyl)-propyl]-benzene-1,3-diol] | 10 µg/mL (≈ 31.4 µM) | 0.5 µg/mL (≈ 1.57 µM) | – | – | –
OC[C@H]1O[C@@H](Oc2ccc(O)cc2)[C@H](O)[C@@H](O)[C@@H]1O [Arbutin, reference compound] | 300 µg/mL (≈ 1100 µM) | – | – | little whitening effect | –
COc1c(C)c(C)c(O)c(C)c1C(O)CCc1ccc(O)cc1O (centres unmarked) [Compound 3, 4-[3-hydroxy-3-(5-hydroxy-2-methoxy-3,4,6-trimethyl-phenyl)-propyl]-benzene-1,3-diol] | 40 µg/mL (≈ 120 µM) | 50 µg/mL (≈ 150 µM) | – | – | –
COc1c(C)c(C)c(O)c(CCCc2ccc(O)cc2O)c1C [Compound 6, 4-[3-(2-hydroxy-5-methoxy-3,4,6-trimethyl-phenyl)-propyl]-benzene-1,3-diol] | 10 µg/mL (≈ 31.6 µM) | 0.1 µg/mL (≈ 0.316 µM) | – | – | –
O=c1cc(CO)occ1O [Kojic acid, reference compound] | – | – | – | – | 15 µg/mL (≈ 106 µM)
